Test results from patent publication US20230174571A1, “METHOD OF TREATING SHIP1-MEDIATED DISEASES USING PELOROL DERIVATIVES” (Zebrapeutics Inc., priority 2020, published 2023).

Columns and labels:
DDIT4 = DDIT4 expression in macrophages; type: cell-based; details: compound by itself
SHIP1 = biological target: T1, SHIP1 (Mus musculus, UniProt Q9ES52); details: binds to the same SHIP1 C2 domain as PI(3,4)P2; Ong et al., 2007; cited from earlier work
T1 sequence (Q9ES52 1-1191): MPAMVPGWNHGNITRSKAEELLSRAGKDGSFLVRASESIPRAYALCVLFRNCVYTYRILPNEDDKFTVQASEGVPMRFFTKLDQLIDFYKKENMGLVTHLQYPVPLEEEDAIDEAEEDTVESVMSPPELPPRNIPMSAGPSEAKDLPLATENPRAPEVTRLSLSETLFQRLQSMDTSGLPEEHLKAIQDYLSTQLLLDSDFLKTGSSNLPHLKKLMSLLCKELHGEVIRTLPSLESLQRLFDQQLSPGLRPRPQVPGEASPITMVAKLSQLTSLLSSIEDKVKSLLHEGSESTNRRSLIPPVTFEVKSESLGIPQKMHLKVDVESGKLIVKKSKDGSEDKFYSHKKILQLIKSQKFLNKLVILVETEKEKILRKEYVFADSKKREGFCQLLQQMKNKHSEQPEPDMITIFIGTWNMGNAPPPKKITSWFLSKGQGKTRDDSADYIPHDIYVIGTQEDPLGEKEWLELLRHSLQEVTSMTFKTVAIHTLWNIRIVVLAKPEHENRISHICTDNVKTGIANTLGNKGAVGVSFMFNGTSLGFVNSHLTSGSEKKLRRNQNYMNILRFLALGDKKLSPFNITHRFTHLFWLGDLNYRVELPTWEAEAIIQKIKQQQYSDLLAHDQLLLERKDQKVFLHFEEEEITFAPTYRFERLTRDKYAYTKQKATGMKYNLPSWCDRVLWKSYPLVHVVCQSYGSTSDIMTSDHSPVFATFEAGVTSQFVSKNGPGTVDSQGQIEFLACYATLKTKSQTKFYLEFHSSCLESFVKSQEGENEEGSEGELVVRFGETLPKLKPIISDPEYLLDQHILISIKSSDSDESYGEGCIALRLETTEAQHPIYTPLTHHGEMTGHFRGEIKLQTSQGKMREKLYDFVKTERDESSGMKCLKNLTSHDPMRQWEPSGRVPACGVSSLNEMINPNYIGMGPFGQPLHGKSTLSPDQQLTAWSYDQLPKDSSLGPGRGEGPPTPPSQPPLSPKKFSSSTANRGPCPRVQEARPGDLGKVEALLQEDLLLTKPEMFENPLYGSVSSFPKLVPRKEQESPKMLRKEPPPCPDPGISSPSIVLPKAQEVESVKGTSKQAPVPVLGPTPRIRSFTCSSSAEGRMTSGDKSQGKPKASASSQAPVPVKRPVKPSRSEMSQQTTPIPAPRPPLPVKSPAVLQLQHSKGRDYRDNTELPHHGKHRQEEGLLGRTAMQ

[1] = tested on: SHIP1 (full length SHIP1, PPAC, PAC2); assay: In vitro phosphatase assay; type: biochemical; details: full length SHIP1, 293T derived PPAC, E. coli derived PPAC, and PAC2; 50 μM IP4
Protocol: In vitro phosphatase assay. The phosphatase assay was performed in 96-well microtiter plates with 10 ng of enzyme/well in a total volume of 25 μL in 20 mM Tris-HCl, pH 7.4, 150 mM NaCl, 0.05% Tween-20, 10 mM MgCl2 as described (Ong et al., 2007). Enzyme was incubated with or compound I-1 (dissolved in ethanol) for 10 minutes at 23° C., before the addition of 50 μM of inositol-1,3,4,5-tetrakisphosphate (IP4) (Echelon Bioscience Inc., Salt Lake City, Utah). The reaction was allowed to proceed for 10 minutes at 37° C. and the amount of inorganic phosphate released was assessed by the addition of Malachite
Green reagent and absorbance measurement at 650 nm. For enzyme kinetic determination, different concentrations of IP4 (0-300 μM) were used and the reactions were stopped at different time points. Initial velocities were calculated, and Kcat and KM were determined using GraphPad 6 software.

[2] = tested on: LPS-stimulated TNFα production in BMDM; assay: Continuous flow culture of BMDM, TNFα kinetics; type: cell-based, mouse
Protocol: Production of bone marrow-derived macrophages. Bone marrow-derived macrophages (BMDMs) were generated by first collecting femurs and tibias from mice, and then flushing out the bone marrow through a 26-G needle. Extracted cells were plated, in Mac media supplemented with 5 ng/ml each of CSF-1 and GM-CSF (Stem Cell Technologies, Vancouver, BC), on a 10-cm tissue culture plate for 2 hours at 37° C. Non-adherent cells were collected and replated at 9×10^6 cells per 10-cm tissue culture plate. Cells were then cultured in the presence of CSF-1 and GM-CSF. Differentiated BMDMs were used after 7 to 8 days. All cells were maintained in a 37° C., 5% CO2, 95% humidity incubator.
Continuous Flow Cultures. The continuous flow apparatus facilitates constant stimulation and removal of cell supernatants to determine kinetic profiles of cytokine production over time. BMDMs were seeded at 3×10^6 cells per well in a 24-well tissue culture plate that had been coated with poly-L-lysine (Thermo Fisher Scientific, Nepean, ON) and rinsed with PBS. After overnight incubation, culture media was removed and Leibovitz's L-15 (L-15) media (Invitrogen, Burlington, ON) supplemented with 3% FCS, 10 μM β-mercaptoethanol and 150 μM monothioglycolate was added. Cells were allowed to equilibrate in L-15 media for 1 hour before being placed in the continuous flow apparatus. Stimulation solution was made in the same media equilibrated at 37° C., and was passed through a modified inlet fitted to the well by a syringe pump (New Era Syringe Pumps Inc., Farmingdale, N.Y.). A flow rate of 150 μl per minute was used. At the same time, cell supernatants were removed from the well at the same flow rate, and fractions were collected at 5-minute intervals over the course of 3 hours. These fractions were analyzed for secreted TNFα levels by ELISA.

Q: With `CC12CCC3C(C)(C)C(N)CCC3(C)C1Cc1cc(O)cc(O)c12` (stereo not drawn) [Compound I-2] as the compound, how does the DDIT4 expression (DDIT4) read?
A: Its DDIT4 expression is “by itself able to induce DDIT4 expression”.

Q: Which results are given for `Cc1cc(O)cc2c1C1(C)CCC3C(C)(C)CCCC3(C)C1C2` (stereo not drawn) [Compound I-1]?
A: SHIP1 functional activity (SHIP1): increases SHIP1 functional activity; activation of phosphatase activity [1]: could be activated

Q: What does the source list for “IL10: anti-inflammatory cytokine interleukin-10”?
A: TNFα levels ([2]; LPS-stimulated SHIP1+/+ and STAT3+/+ BMDM): reduces; inhibition of 3-hour TNFα peak ([2]; LPS-stimulated STAT3−/− and SHIP1−/− (KO) BMDM): partly impaired; inhibition of 1-hour TNFα peak ([2]; LPS-stimulated STAT3−/− and SHIP1−/− BMDM): completely impaired
